Reference: patent publication US12077503B2, “Substituted cyclic amides and their use as herbicides” (FMC CORPORATION, priority 2015, dated 2024)

Assays:
Format in all cases: in vivo
[1] = system: ducksalad (Heteranthera limosa); assay: Test B flooded paddy test; conditions: Flood, 500 g ai/ha; 0 to 100 scale where 0 is no effect and 100 is complete control; 13 to 15 d
Method in brief: (§1)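 Greenhouse paddy pots with 2-leaf stage plants received compound by direct addition to floodwater 3 cm deep, kept at that level. Scored visually at 13–15 d versus controls (0 no effect; 100 complete control).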

[2] = system: rice (Oryra sativa); assay: Test B flooded paddy test; conditions: Flood, 500 g ai/ha; 0 to 100 scale where 0 is no effect and 100 is complete control; 13 to 15 d
Method in brief: as §1

[3] = system: sedge, umbrella (small-flower umbrella sedge, Cyperus difformis); assay: Test B flooded paddy test; conditions: Flood, 500 g ai/ha; 0 to 100 scale where 0 is no effect and 100 is complete control; 13 to 15 d
Method in brief: as §1

[4] = system: barnyardgrass (Echinochloa crus-galli); assay: Test B flooded paddy test; conditions: Flood, 500 g ai/ha; 0 to 100 scale where 0 is no effect and 100 is complete control; 13 to 15 d
Method in brief: as §1

[5] = system: pigweed (Amaranthus retroflexus); assay: Test A preemergence
[6] = system: ryegrass, Italian (Italian ryegrass, Lolium multiflorum); assay: Test A preemergence
Method in brief: (§2)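 Seeded soil received test chemicals as a preemergence directed spray, and seedlings at one to two leaves, 2–10 cm tall, received them postemergence, in a non-phytotoxic, surfactant-containing solvent mixture. Pots were held in a greenhouse for approximately 10 d, then rated for injury from 0, no effect, to 100, complete control.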

[7] = system: Kochia (Kochia scoparia); assay: Test A preemergence
Method in brief: as §2

[8] = system: giant foxtail (Setaria faberii); assay: Test A preemergence
Method in brief: as §2

[9] = system: ragweed (common ragweed, Ambrosia elatior); assay: Test A preemergence; conditions: 125 g ai/ha, preemergence; 0 to 100 scale (0 no effect, 100 complete control)
Method in brief: as §2

[10] = system: barnyardgrass (Echinochloa crus-galli); assay: Test A preemergence
Method in brief: as §2

[11] = system: pigweed (Amaranthus retroflexus); assay: Test A postemergence; conditions: postemergence
Method in brief: as §2

[12] = system: blackgrass (Alopecurus myosuroides); assay: Test A postemergence
Method in brief: as §2

[13] = system: ryegrass, Italian (Italian ryegrass, Lolium multiflorum); assay: Test A postemergence; conditions: postemergence
Method in brief: as §2

[14] = system: corn (Zea mays); assay: Test A postemergence; conditions: postemergence
Method in brief: as §2

[15] = system: Kochia (Kochia scoparia); assay: Test A postemergence; conditions: postemergence
Method in brief: as §2

[16] = system: giant foxtail (Setaria faberii); assay: Test A postemergence; conditions: postemergence
Method in brief: as §2

[17] = system: ragweed (common ragweed, Ambrosia elatior); assay: Test A postemergence; conditions: postemergence
Method in brief: as §2

[18] = system: barnyardgrass (Echinochloa crus-galli); assay: Test A postemergence
Method in brief: as §2

[19] = system: Galium (catchweed bedstraw, Galium aparine); assay: Test A postemergence; conditions: postemergence
Method in brief: as §2

[20] = system: wheat (Triticum aestivum); assay: Test A postemergence; conditions: postemergence
Method in brief: as §2

[21] = 125 g ai/ha, preemergence, 0 to 100 scale (0 no effect, 100 complete control)
[22] = Preemergence, 500 g ai/ha, 0 is no effect, 100 is complete control
[23] = 125 g ai/ha, visual injury rating on 0 to 100 scale (0 no effect, 100 complete control), approx. 10 d
[24] = 500 g ai/ha, 0 to 100 scale, 0 no effect, 100 complete control
[25] = 500 g ai/ha, postemergence, 0 to 100 scale, 0 no effect, 100 complete control
[26] = Postemergence, 125 g ai/ha, visual injury, 0 to 100 scale (0 no effect, 100 complete control), approx. 10 d

Compound: COc1c(F)ccc(NC(=O)C2C(=O)NCC2c2cccc(C(F)(F)F)c2)c1F (racemic) [Compound 386]
- Plant response rating, Ducksalad [1]: 70
- Plant response rating, Rice [2]: 15
- Plant response rating, Sedge, Umbrella [3]: 0
- Plant response rating, Barnyardgrass [4]: 60
- Plant response rating, Pigweed [5, 21]: 0
- Pigweed plant response rating (0 to 100 scale) [5, 22]: 0
- Plant response rating, Ryegrass, Italian [6, 21]: 30
- Ryegrass, Italian plant response rating (0 to 100 scale) [6, 22]: 50
- Plant response rating, Kochia [7, 21]: 0
- Kochia plant response rating (0 to 100 scale) [7, 22]: 0
- Plant response rating, Foxtail, Giant [8, 21]: 80
- Foxtail, Giant plant response rating (0 to 100 scale) [8, 22]: 90
- Plant response rating, Ragweed [9]: 0
- Plant response rating, Barnyardgrass [10, 21]: 80
- Barnyardgrass plant response rating (0 to 100 scale) [10, 22]: 80
- Pigweed plant response rating [11, 23]: 0
- Plant response rating, Pigweed [11, 24]: 10
- Plant response rating, Blackgrass [12, 25]: 70
- Plant response rating, Blackgrass [12, 26]: 50
- Ryegrass, Italian plant response rating [13, 23]: 20
- Plant response rating, Ryegrass, Italian [13, 24]: 50
- Corn plant response rating [14, 23]: 40
- Plant response rating, Corn [14, 24]: 80
- Kochia plant response rating [15, 23]: 0
- Plant response rating, Kochia [15, 24]: 0
- Foxtail, Giant plant response rating [16, 23]: 70
- Plant response rating, Foxtail, Giant [16, 24]: 80
- Ragweed plant response rating [17, 23]: 0
- Plant response rating, Ragweed [17, 24]: 30
- Plant response rating, Barnyardgrass [18, 25]: 80
- Plant response rating, Barnyardgrass [18, 26]: 70
- Galium plant response rating [19, 23]: 50
- Plant response rating, Galium [19, 24]: 60
- Wheat plant response rating [20, 23]: 30
- Plant response rating, Wheat [20, 24]: 50
